Results published in patent US6352989B1, “Nitrogenous heterocyclic derivatives and medicine thereof” (Eisai Co., Ltd., priority 1998, dated 2002).

Row | SMILES | melting point
1 | CNc1nc(-c2cccc(NC(=O)Cc3ccccc3)c2)c2cc(OC)c(OC)cc2n1 [Example 6, 6,7-Dimethoxy-2-methylamino 4-[3-(phenylacetylamino)phenyl]quinazoline] | 175 to 177 °C
2 | CNc1nc(-c2cccc(NC(=O)CCc3ccccc3)c2)c2cc(OC)c(OC)cc2n1 [Example 7, 6,7-Dimethoxy-2-methylamino-4-[3-(3-phenylpropanoylamino)phenyl]quinazoline] | 180 to 182 °C
3 | CNc1nc(-c2cccc(NC(=O)c3ccccc3OC)c2)c2cc(OC)c(OC)cc2n1 [Example 11, 6,7-Dimethoxy-4-[3-(2-methoxybenzoylamino)phenyl]-2-methylaminoquinazoline] | 194 to 196 °C
4 | CNc1nc(-c2cccc(NC(=O)c3ccc(OC)cc3)c2)c2cc(OC)c(OC)cc2n1 [Example 13, 6,7-Dimethoxy-4-[3-(4-methoxybenzoylamino)phenyl]-2-methylaminoquinazoline] | 219 to 221 °C
5 | CNc1nc(-c2cccc(NC(=O)C3CC3)c2)c2cc(OC)c(OC)cc2n1 [Example 16, 4-(3-Cyclopropanoylaminophenyl)-6,7-dimethoxy-2-methylaminoquinazoline] | 205 to 207 °C
6 | CNc1nc(-c2cccc(NC(=O)c3cc(OC)c(OC)c(OC)c3)c2)c2cc(OC)c(OC)cc2n1 [Example 19, 6,7-Dimethoxy-4-methylamino-4-[3-(3,4,5-trimethoxybenzoylamino)phenyl]quinazoline] | 122 to 124 °C
7 | CNc1nc(-c2cccc(NC(=O)c3ccc(OCc4ccccc4)cc3)c2)c2cc(OC)c(OC)cc2n1 [Example 20, 4-[3-(4-Benzyloxybenzoylamino)phenyl]-6,7-dimethoxy-2-methylaminoquinazoline] | 110 to 112 °C
8 | CNc1nc(-c2cccc(NC(=O)c3cccc(OCc4ccccc4)c3)c2)c2cc(OC)c(OC)cc2n1 [Example 22, 4-[3-(3-Benzyloxybenzoylamino)phenyl]-6,7-dimethoxy-2-methylaminoquinazoline] | 110 to 112 °C
9 | CNc1nc(-c2cccc(NC(=O)c3ccccc3OCc3ccccc3)c2)c2cc(OC)c(OC)cc2n1 [Example 24, 4-[3-(2-Benzyloxybenzoylamino)phenyl]-6,7-dimethoxy-2-methylaminoquinazoline] | 192 to 194 °C
10 | CNc1nc(-c2cccc(NC(=O)c3ccccc3O)c2)c2cc(OC)c(OC)cc2n1 [Example 25, 6,7-Dimethoxy-4-[3-(2-hydroxybenzoylamino)phenyl]-2-methylaminoquinazoline] | 212 to 214 °C
11 | CNc1nc(-c2cccc(NC(=O)c3ccc(SC)cc3)c2)c2cc(OC)c(OC)cc2n1 [Example 26, 6,7-Dimethoxy-2-methylamino-4-[3-(4-methylthiobenzoylamino)phenyl]quinazoline] | 209 to 211 °C
12 | CNc1nc(-c2cccc(NC(=O)c3ccc([S+](C)[O-])cc3)c2)c2cc(OC)c(OC)cc2n1 (centres unmarked) [Example 27, 6,7-Dimethoxy-2-methylamino-4-[3-(4-methylsulfinylbenzoylamino)phenyl]quinazoline] | 246 to 248 °C
13 | CNc1nc(-c2cccc(NC(=O)c3ccc(S(C)(=O)=O)cc3)c2)c2cc(OC)c(OC)cc2n1 [Example 28, 6,7-Dimethoxy-2-methylamino-4-[3-(4-methylsulfonylbenzoylamino)phenyl]quinazoline] | 277 to 279 °C
14 | CNc1nc(-c2cccc(NS(=O)(=O)c3ccccc3)c2)c2cc(OC)c(OC)cc2n1 [Example 35, 4-(3-Benzenesulfonamidephenyl)-6,7-dimethoxy-2-methylaminoquinazoline] | 230 to 232 °C
15 | CNc1nc(-c2cccc(NC(=O)Nc3ccccc3)c2)c2cc(OC)c(OC)cc2n1 [Example 36, 6,7-Dimethoxy-2-methylamino-4-[3-(3-phenylureido)phenyl]quinazoline] | 218 to 220 °C
16 | CNc1nc(-c2cccc(N3C(=O)c4ccccc4C3=O)c2)c2cc(OC)c(OC)cc2n1 [Example 37, 6,7-Dimethoxy-2-methylamino-4-(3-phthalimidephenyl) quinazoline] | 280 to 282 °C
17 | CNc1nc(-c2cccc(NCc3ccccc3)c2)c2cc(OC)c(OC)cc2n1 [Example 38] | 146 to 148 °C

The remaining lines, values ahead:

Row | melting point | SMILES
18 | 201 to 203 °C | CNc1nc(-c2cccc(NC(=O)c3ccccc3)c2)c2cc(OC)c(OC)cc2n1 [Example 1, 4-(3-Benzoylaminophenyl)-6,7-dimethoxy-2-methylaminoquinazoline]
19 | 175 to 177 °C | CNc1nc(-c2cccc(NC(=O)c3ccccn3)c2)c2cc(OC)c(OC)cc2n1 [Example 3, 6,7-Dimethoxy-2-methylamino-4-[3-(2-pyridinecarbonylamino)phenyl]quinazoline]
20 | 251 to 253 °C | CNc1nc(-c2cccc(NC(=O)c3cccnc3)c2)c2cc(OC)c(OC)cc2n1 [Example 4, 6,7-Dimethoxy-2-methylamino-4-[3-(3-pyridinecarbonylamino)phenyl]quinazoline]
21 | 205 to 207 °C | CNc1nc(-c2cccc(NC(=O)c3ccc4c(c3)OCO4)c2)c2cc(OC)c(OC)cc2n1 [Example 5, 6,7-Dimethoxy-2-methylamino-4-[3-(3,4-methylenedioxybenzoylamino)phenyl]quinazoline]
22 | 197 to 199 °C | CNc1nc(-c2cccc(NC(=O)c3ccccc3Cl)c2)c2cc(OC)c(OC)cc2n1 [Example 8, 4-[3-(2-Chlorobenzoylamino)phenyl]-6,7-dimethoxy-2-methylaminoquinazoline]
23 | 124 to 126 °C | CNc1nc(-c2cccc(NC(=O)c3cccc(Cl)c3)c2)c2cc(OC)c(OC)cc2n1 [Example 9, 4-[3-(3-Chlorobenzoylamino)phenyl]-6,7-dimethoxy-2-methylaminoquinazoline]
24 | 193 to 195 °C | CNc1nc(-c2cccc(NC(=O)c3ccc(Cl)cc3)c2)c2cc(OC)c(OC)cc2n1 [Example 10, 4-[3-(4-Chlorobenzoylamino)phenyl]-6,7-dimethoxy-2-methylaminoquinazoline]
25 | 193 to 195 °C | CNc1nc(-c2cccc(NC(=O)c3cccc(OC)c3)c2)c2cc(OC)c(OC)cc2n1 [Example 12, 6,7-Dimethoxy-4-[3-(3-methoxybenzoylamino)phenyl]-2-methylaminoquinazoline]
26 | 134 to 136 °C | CNc1nc(-c2cccc(NC(=O)c3ccc(Cl)c(Cl)c3)c2)c2cc(OC)c(OC)cc2n1 [Example 15, 4-[3-(3,4-Dichlorobenzoylamino)phenyl]-6,7-dimethoxy-2-methylaminoquinazoline]
27 | 265 to 267 °C | CNc1nc(-c2cccc(NC(=O)c3cccc(O)c3)c2)c2cc(OC)c(OC)cc2n1 [Example 23, 6,7-Dimethoxy-4-[-(3-hydroxybenzoylamino)phenyl]-2-methylaminoquinazoline]
28 | 157 to 159 °C | CNc1nc(-c2cccc(NC(=O)c3ccc(Cl)nc3)c2)c2cc(OC)c(OC)cc2n1 [Example 29, 4-[3-(6-Choloronicotinoylamino)phenyl]-6,7-dimethoxy-2-methylaminoquinazoline]
29 | 151 to 153 °C | CNc1nc(-c2cccc(NC(=O)c3ccnc(Cl)c3)c2)c2cc(OC)c(OC)cc2n1 [Example 33, 4-[3-(2-Chloroisonicotinoylamino)phenyl]-6,7-dimethoxy-2-methylaminoquinazoline]
